According to patent US20250381245A1, “METHODS AND COMPOSITIONS OF TREATING CANCER BY MODULATING PALMITOYLATION OF FLOTILLIN-1” (BOARD OF REGENTS, THE UNIVERSITY OF TEXAS SYSTEM, priority 2022, published 2025):
Residues, ends and D or L forms follow the SMILES beside them. *: point of attachment. Cbz = O=C(OCc1ccccc1)*

System: flotillin-1
Assay: Flotillin-1 protein level by western blot after chemical inhibition of palmitoylation in triple-negative breast cancer cell lines
Assay type: cell-based
Details: MDA-MB-231 and SUM 159 triple-negative breast cancer cell lines
Experimental: MDA-MB-231 and SUM 159 triple-negative breast cancer cell lines were treated with drug vehicle (DMSO), (B, C) global palmitoylation inhibitor (2-BP), or 2-BP+a proteasomal inhibitor (MG-132).
Protein lysates were lysed in a 1% SDS lysis buffer containing 2 mM EDTA and 20 mM Tris-HCl (PH 6.8) for 5 minutes and scraped into 1.5 mL collection tubes. Lysates were sonicated using horn sonification for 3×20 seconds each and allowed to recover on ice in between each sonification. Lysates were centrifuged for 5 minutes at 10,000 rpm at 4° C. and supernatants subjected to protein quantification by BCA assay. Lysates were then diluted to 50 ug, resolubilized in 4×SDS loading buffer (200 mM Tris-HCL, 6.8 PH, 8% SDS, 40% glycerol, 0.4% bromophenol blue) and boiled at 95° C. for 7 minutes. Boiled samples were resolved on a 10% SDS-PAGE gel and transferred to a nitrocellulose membrane. Transferred membranes were blocked for 1 hour in 5% non-fat dairy milk (NFDM). Blocked membranes were washed with 1× tris buffer saline+0.1% tween-20 (TBST) prior to the addition of the diluted primary antibody overnight at 4° C. The following day, membranes were washed thrice with TBST for 5 minutes each prior to the addition of rabbit (1:3000) (Cell Signaling Technologies, #7074) or mouse IgG (1:5000) secondary horse radish peroxidase (HRP) conjugated antibody diluted in 5% NFDM for 1 hour. […]

| SMILES | flotillin-1 protein levels upon proteasomal inhibition (2-BP + proteasomal inhibitor (MG-132) vs 2-BP alone) | flotillin-1 protein levels (global palmitoylation inhibitor vs drug vehicle (DMSO)) |
| --- | --- | --- |
| CC(C)C[C@@H](C=O)NC(=O)[C@H](CC(C)C)NC(=O)[C@H](CC(C)C)NC(=O)OCc1ccccc1 [MG-132] (Cbz-Leu-Leu-Leu-aldehyde) | restored | – |
| CCCCCCCCCCCCCCC(Br)C(=O)O (centres unmarked) [2-BP, 2-bromopalmitate] | – | significantly reduces flotillin-1 protein levels |
